Measurements: PubChem BioAssay (NCI)
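Compound exposure: 48 hours, 5 concentrations, 96-well plates. Abbreviation: GI50, concentration required for 50% inhibition of growth. TGI is the concentration that stops growth completely.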

How the values were obtained:
Test in all cases: NCI tumour cell line growth inhibition, 48 h
[1] = tested on: UACC-257 melanoma
[2] = tested on: COLO 205 colon
[3] = tested on: SW-620 colon
[4] = tested on: K-562 leukemia
[5] = tested on: IGROV1 ovarian
[6] = tested on: UACC-62 melanoma
[7] = tested on: SNB-75 CNS
[8] = tested on: SK-MEL-5 melanoma
[9] = tested on: SF-268 CNS
[10] = tested on: MCF7 breast
[11] = tested on: KM12 colon
[12] = tested on: UO-31 renal
[13] = tested on: SK-MEL-2 melanoma
[14] = tested on: OVCAR-5 ovarian
[15] = tested on: A549 NSCLC
[16] = tested on: SF-295 CNS
[17] = tested on: NCI-H23 lung
[18] = tested on: MDA-MB-435
[19] = tested on: HOP-92 NSCLC
[20] = tested on: MOLT-4 leukemia
[21] = tested on: NCI/ADR-RES ovarian
[22] = tested on: HCT-116 colon
[23] = tested on: HL-60(TB) leukemia
[24] = tested on: M14 melanoma
[25] = tested on: DU-145 prostate
[26] = tested on: SK-OV-3 ovarian
[27] = tested on: OVCAR-4 ovarian
[28] = tested on: PC-3 prostate
[29] = tested on: MDA-N
[30] = tested on: OVCAR-3 ovarian
[31] = tested on: HOP-62 NSCLC
[32] = tested on: 786-0 renal
[33] = tested on: NCI-H460 lung
[34] = tested on: CAKI-1 renal
[35] = tested on: TK-10 renal
[36] = tested on: SF-539 CNS
[37] = tested on: HCC-2998 colon
[38] = tested on: SN12C renal
[39] = tested on: MALME-3M melanoma
[40] = tested on: HS 578T breast
[41] = tested on: HCT-15 colon
[42] = tested on: LOX IMVI melanoma
[43] = tested on: BT-549 breast
[44] = tested on: RPMI-8226 leukemia
[45] = tested on: SR leukemia
[46] = tested on: ACHN renal
[47] = tested on: U251 CNS
[48] = tested on: SNB-19 CNS
[49] = tested on: RXF 393 renal
[50] = tested on: SK-MEL-28 melanoma
[51] = tested on: HT29 colon
[52] = tested on: MDA-MB-231 breast
[53] = tested on: EKVX NSCLC
[54] = tested on: OVCAR-8 ovarian
[55] = tested on: NCI-H226 lung
[56] = tested on: T-47D breast
[57] = tested on: A498 renal
[58] = tested on: NCI-H522 lung
[59] = tested on: CCRF-CEM leukemia

Compound `CC(=O)OCC1OC(n2c3c(c(-c4ccco4)c(C#N)c2=S)CCC3)C(OC(C)=O)C(OC(C)=O)C1OC(C)=O` (configuration not stated) has a TGI [1] greater than 100 µM, a TGI [2] greater than 100 µM and a TGI [3] greater than 100 µM. The TGI [4] was greater than 100 µM, the TGI [5] was greater than 100 µM and the TGI [6] was greater than 100 µM. For the same compound, the TGI [7] was greater than 100 µM, the TGI [8] was greater than 100 µM and the TGI [9] was greater than 100 µM. The TGI [10] was greater than 100 µM, the TGI [11] was greater than 100 µM and the TGI [12] was greater than 100 µM. It also gave a TGI [13] greater than 100 µM, a TGI [14] greater than 100 µM and a TGI [15] greater than 100 µM. The TGI [16] was greater than 100 µM, the TGI [17] was greater than 100 µM and the TGI [18] was greater than 100 µM. The TGI [19] was 69 µM, the TGI [20] was 45.3 µM and the TGI [21] was greater than 100 µM. It also gave a TGI [22] greater than 100 µM, a TGI [23] greater than 100 µM and a TGI [24] greater than 100 µM. It also gave a TGI [25] greater than 100 µM, a TGI [26] greater than 100 µM and a TGI [27] greater than 100 µM. The TGI [28] was greater than 100 µM, the TGI [29] was greater than 100 µM and the TGI [30] was greater than 100 µM. It also gave a TGI [31] greater than 100 µM, a TGI [32] greater than 100 µM and a TGI [33] greater than 100 µM. For the same compound, the TGI [34] was greater than 100 µM, the TGI [35] was greater than 100 µM and the TGI [36] was greater than 100 µM. It also gave a TGI [37] greater than 100 µM, a TGI [38] greater than 100 µM and a TGI [39] greater than 100 µM. It also gave a TGI [40] greater than 100 µM, a TGI [41] greater than 100 µM and a TGI [42] greater than 100 µM. The TGI [43] was greater than 100 µM, the TGI [44] was greater than 100 µM and the TGI [45] was greater than 100 µM. It also gave a TGI [46] greater than 100 µM, a TGI [47] greater than 100 µM and a TGI [48] greater than 100 µM. The TGI [49] was 86.9 µM, the TGI [50] was greater than 100 µM and the TGI [51] was greater than 100 µM.
`CC1(C)CC(=O)C2=C(C1)OC1=C(C(=O)CC(C)(C)C1)C2CC(c1ccccc1)c1ccc(O)c(O)c1O` (configuration not stated) was tested, and the TGI [3] was greater than 10 µM, the TGI [52] was greater than 10 µM and the TGI [5] was greater than 10 µM. The TGI [7] was greater than 10 µM, the TGI [8] was greater than 10 µM and the TGI [9] was greater than 10 µM. For the same compound, the TGI [11] was greater than 10 µM, the TGI [12] was greater than 10 µM and the TGI [14] was greater than 10 µM. It also gave a TGI [15] greater than 10 µM, a TGI [16] greater than 10 µM and a TGI [53] greater than 10 µM. It also gave a TGI [17] greater than 10 µM, a TGI [18] greater than 10 µM and a TGI [19] greater than 10 µM. For the same compound, the TGI [54] was greater than 10 µM, the TGI [21] was greater than 10 µM and the TGI [22] was greater than 10 µM. It also gave a TGI [24] greater than 10 µM, a TGI [25] greater than 10 µM and a TGI [27] greater than 10 µM. The TGI [28] was greater than 10 µM, the TGI [29] was greater than 10 µM and the TGI [30] was greater than 10 µM. The TGI [34] was greater than 10 µM, the TGI [35] was greater than 10 µM and the TGI [36] was greater than 10 µM. It also gave a TGI [38] greater than 10 µM, a TGI [41] greater than 10 µM and a TGI [46] greater than 10 µM. It also gave a TGI [47] greater than 10 µM, a TGI [48] greater than 10 µM and a TGI [55] greater than 10 µM. The TGI [49] was greater than 10 µM and the TGI [51] was greater than 10 µM.
In the case of `CC(C)[C@@]12C[C@@H](OC(=O)[C@H]3CO3)[C@@](C)(O1)[C@@H]1CC[C@@H](C)[C@H]1[C@@H]2OC(=O)/C=C/c1ccccc1`, the GI50 [1] is reported as 19.5 µM, the TGI [1] is reported as 50.6 µM and the GI50 [2] is reported as 23.2 µM. The TGI [2] was greater than 65.1 µM, the GI50 [3] was 29.9 µM and the TGI [3] was greater than 100 µM. The GI50 [52] was 12.9 µM, the TGI [52] was 38.6 µM and the GI50 [4] was 18.5 µM. It also gave a TGI [4] greater than 100 µM, a GI50 [5] of 23.7 µM and a TGI [5] greater than 83.4 µM. For the same compound, the GI50 [6] was 13.6 µM, the TGI [6] was 35.7 µM and the GI50 [7] was 2.72 µM. For the same compound, the TGI [7] was 29.7 µM, the GI50 [8] was 14.9 µM and the TGI [8] was 28.5 µM. For the same compound, the GI50 [56] was 8.11 µM, the TGI [56] was greater than 49.9 µM and the GI50 [9] was 0.777 µM. For the same compound, the TGI [9] was greater than 81.2 µM, the GI50 [10] was 9.33 µM and the TGI [10] was greater than 100 µM. For the same compound, the GI50 [11] was 19.1 µM, the TGI [11] was greater than 60 µM and the GI50 [12] was 0.177 µM. For the same compound, the TGI [12] was 0.416 µM, the GI50 [57] was 0.217 µM and the TGI [57] was 0.684 µM. For the same compound, the GI50 [13] was 16.7 µM, the TGI [13] was 47.7 µM and the GI50 [14] was 20.5 µM. The TGI [14] was 68 µM, the GI50 [15] was 16.7 µM and the TGI [15] was 54.6 µM. It also gave a GI50 [16] of 15.3 µM, a TGI [16] of 35.5 µM and a GI50 [53] of 16.3 µM. The TGI [53] was greater than 75.6 µM, the GI50 [17] was 19.7 µM and the TGI [17] was greater than 100 µM. The GI50 [18] was 20.6 µM, the TGI [18] was greater than 73.5 µM and the GI50 [19] was 9.22 µM. The TGI [19] was 27.1 µM, the GI50 [20] was 18.1 µM and the TGI [20] was greater than 100 µM. For the same compound, the GI50 [54] was 0.434 µM, the TGI [54] was greater than 52.4 µM and the GI50 [21] was 0.799 µM. For the same compound, the TGI [21] was 35.9 µM, the GI50 [22] was 9.46 µM and the TGI [22] was greater than 100 µM. For the same compound, the GI50 [23] was 13.4 µM, the TGI [23] was 44.5 µM and the GI50 [24] was 27 µM. For the same compound, the TGI [24] was greater than 100 µM, the GI50 [25] was 31.5 µM and the TGI [25] was greater than 100 µM. It also gave a GI50 [26] of 18.2 µM, a TGI [26] of 45.8 µM and a GI50 [27] of 11.5 µM. The TGI [27] was 30.2 µM, the GI50 [28] was 9.59 µM and the TGI [28] was greater than 88.1 µM. It also gave a GI50 [30] of 12.3 µM, a TGI [30] of 30.8 µM and a GI50 [31] of 33.2 µM. It also gave a TGI [31] greater than 100 µM, a GI50 [32] of 3.55 µM and a TGI [32] of 22 µM. It also gave a GI50 [33] of 17.2 µM, a TGI [33] of 42.5 µM and a GI50 [58] of 14.3 µM. The TGI [58] was 32.7 µM, the GI50 [34] was 6.83 µM and the TGI [34] was greater than 100 µM. It also gave a GI50 [35] of 33.9 µM, a TGI [35] greater than 100 µM and a GI50 [36] of 17.5 µM. For the same compound, the TGI [36] was 43.3 µM, the GI50 [37] was 17.8 µM and the TGI [37] was 41.5 µM. It also gave a GI50 [38] of 11.9 µM, a TGI [38] of 41.2 µM and a GI50 [39] of 13.9 µM. The TGI [39] was 30 µM, the GI50 [40] was 0.0736 µM and the TGI [40] was 0.501 µM. For the same compound, the GI50 [41] was 11.1 µM, the TGI [41] was greater than 100 µM and the GI50 [42] was 12.6 µM. The TGI [42] was 46.3 µM, the GI50 [59] was 18 µM and the TGI [59] was greater than 84.7 µM. It also gave a GI50 [43] of 1.34 µM, a TGI [43] of 13.7 µM and a GI50 [44] of 13.5 µM. For the same compound, the TGI [44] was 68.2 µM, the GI50 [45] was 24.7 µM and the TGI [45] was greater than 100 µM. It also gave a GI50 [46] of 0.108 µM, a TGI [46] of 3.07 µM and a GI50 [47] of 22.9 µM. It also gave a TGI [47] greater than 80.6 µM, a GI50 [48] of 21.6 µM and a TGI [48] of 74.6 µM. For the same compound, the GI50 [55] was 13.8 µM, the TGI [55] was 32.2 µM and the GI50 [49] was 1.3 µM. It also gave a TGI [49] of 17.8 µM, a GI50 [50] of 18.7 µM and a TGI [50] of 57.2 µM. For the same compound, the GI50 [51] was 27.6 µM and the TGI [51] was greater than 100 µM.
